Values of other authors, collected in patent US11718832B2, “Method to reduce oncogenic potential of induced pluripotent stem cells from aged donors” (MEMORIAL SLOAN-KETTERING CANCER CENTER, priority 2014, dated 2023).

System: GSS
Details: literature

Structure (SMILES)	Inhibition of GSS
[N-]=[N+]=CC(=O)CC[C@H](N)C(=O)O [6-Diazo-5-oxo-L-norleucine]	inhibit GSS
[N-]=[N+]=CC(=O)OC[C@H](N)C(=O)O [azaserine]	inhibit GSS
CCCCS(=N)(=O)CCC(N)C(=O)O (stereo not drawn) [buthionine sulfoximine]	inhibit GSS
